The values below come from patent US20200016277A1, “NANOPARTICLES FOR ACTIVE AGENT DELIVERY TO BRAIN CANCERS” (MUSC FOUNDATION FOR RESEARCH DEVELOPMENT, priority 2017, published 2020).

Structures are written as SMILES.

For the test, the system named is U87 cells. Nature of the test: Cytotoxicity of TMZ micelles (Guava ViaCount cell viability assay).

Method: Three cytotoxicity experiments, using Guava Via-Count Assay and flow cytometry (EMD Millipore, MA, USA), were performed using increasing concentrations of free TMZ, MTMZ and PMTMZ over increasing time. Cells (30,000 cells per well) were plated in 24-well plates and incubated overnight at 37° C. with 5% CO2. A TMZ solution (1 mg ml^−1) in DMSO was prepared and stored at 4° C. The stock solution was diluted with alpha-MEM and used to prepare free TMZ at increasing concentrations of 0-100 04. Independently, both 1 μM and 10 04 samples of PMTMZ and MTMZ were prepared with alpha-MEM. The triplicate wells were treated with concentrations at a constant volume of 200 μl per well. After 24 h, cell viability was performed using Guava ViaCount Assay and flow cytometry (EMD Millipore). The remaining wells were retreated with the appropriate concentrations over a 10 day period. Viability data was collected and analyzed.

On to `Cn1nnc2c(C(N)=O)ncn2c1=O` [free TMZ, temozolomide], for which, where the note is “U87, 1 μM, between 1 and 5 days”, the “Cells killed (cell death)” value is reported as “approximately 4%”. This compound displayed a Cell death (U87, 10 or 100 μM, between 24 and 72 h) of about 2%.
